Laboratory results published in patent US20250214986A1, “P2X3 INHIBITOR COMPOUND, SALT THEREOF, POLYMORPH THEREOF AND USE THEREOF” (HUMANWELL HEATHCARE (GROUP) CO., LTD., priority 2022, published 2025).
Structures can show the parent of a compound that is named as a salt. Each block holds one molecule with its values, some of them ahead of it.

Columns and labels:
Type in all cases: physicochemical
[1] = Dynamic solubility experiment at 37° C.
Protocol: In the test, the purity, dynamic solubility and stability were tested using an Agilent 1260 high-performance liquid chromatograph, the molar ratio of salt-forming ions was tested using ion chromatography, and the analytical conditions are shown in Tables A-4 and A-5 below.
Solids at a feeding concentration of 10 mg/mL (calculated based on free base) were rotationally mixed with corresponding vehicles at 37° C. […] After sampling at each time point, the samples were centrifuged (at 10000 rpm) and filtered (through a 0.45 μm PTFE filter head). The HPLC concentrations and pH values of the filtrates were determined.
100.2 mg of NaCl and 50.3 mg of Triton X-100 were weighed into a 50 mL volumetric flask and then completely dissolved by addition of purified water. 816 μL of 1 M hydrochloric acid was added, and the pH was adjusted to 1.8 with 1 M hydrochloric acid or 1 M NaOH solution. The mixed solution was brought to the volume by addition of purified water.
170.5 mg of anhydrous NaH2PO4, 22.2 mg of NaOH, and 310.9 mg of NaCl were weighed into a 50 mL volumetric flask and then completely dissolved by addition of purified water. The pH was adjusted to 6.5 with 1 M hydrochloric acid or 1 M NaOH solution. The mixed solution was brought to the volume by addition of purified water. Subsequently, 55.1 mg of SIF powder was weighed into a 25 mL volumetric flask and completely dissolved with the above solution, and the mixed solution was brought to the volume.
0.21 mL of glacial acetic acid, 101.6 mg of NaOH, and 295.4 mg of NaCl were added into a 25 mL volumetric flask and then completely dissolved by addition of about 20 mL of purified water. The pH was adjusted to 5.0 with 1 M hydrochloric acid or 1 M NaOH solution. The mixed solution was brought to the volume by addition of purified water, and then 280.8 mg of SIF powder was weighed into the flask and completely dissolved.

[2] = Hygroscopicity by dynamic vapor sorption (DVS); details: for crystalline form after DVS test: 0% RH to 95% RH to 0% RH; for vapor sorption / hygroscopicity: 25° C./80% RH; for hygroscopicity: DVS
Protocol: Dynamic vapor sorption (DVS) curves were acquired on a DVS IntrInsic from Surface Measurement Systems (SMS). The relative humidity at 25° C. was corrected with the deliquescence points of LiCl, Mg(NO3)2, and KCl.
Starting at 0% RH, the test acquired the percentage changes in mass of the samples when the humidity changed (0% RH to 95% RH to 0% RH) at a constant temperature of 25° C.

[3] = Solid state stability (XRPD and HPLC); details: for change of HPLC purity after placement under the corresponding conditions: 60° C. sealed 1 day, 25° C./60% RH and 40° C./75% RH uncovered 1 week/1 month
Protocol: In the test, the purity, dynamic solubility and stability were tested using an Agilent 1260 high-performance liquid chromatograph, the molar ratio of salt-forming ions was tested using ion chromatography, and the analytical conditions are shown in Tables A-4 and A-5 below. [table]

[4] = 25° C./60% RH/uncovered, 1 week
[5] = 40° C./75% RH/uncovered, 1 week
[6] = 25° C./60% RH/uncovered, 1 month
[7] = 40° C./75% RH/uncovered, 1 month

- Crystalline form change ([1]; FaSSIF, 1 h): Yes^a
- S: solubility ([1]; FaSSIF, 1 h): 9 µg/mL
- pH of filtrate ([1]; FaSSIF, 1 h): 5.2
- Crystalline form change ([1]; FaSSIF, 4 h): Yes^a
- S: solubility ([1]; FaSSIF, 4 h): 9 µg/mL
- pH of filtrate ([1]; FaSSIF, 4 h): 5.2
- Crystalline form change ([1]; FaSSIF, 24 h): Yes^a
- S: solubility ([1]; FaSSIF, 24 h): 14 µg/mL
- pH of filtrate ([1]; FaSSIF, 24 h): 5.2
- Crystalline form change ([1]; FeSSIF, 1 h): Yes^a
- S: solubility ([1]; FeSSIF, 1 h): 30 µg/mL
- pH of filtrate ([1]; FeSSIF, 1 h): 4.9
- Crystalline form change ([1]; FeSSIF, 4 h): Yes^a
- S: solubility ([1]; FeSSIF, 4 h): 27 µg/mL
- pH of filtrate ([1]; FeSSIF, 4 h): 4.9
- Crystalline form change ([1]; FeSSIF, 24 h): Yes^a
- S: solubility ([1]; FeSSIF, 24 h): 23 µg/mL
- pH of filtrate ([1]; FeSSIF, 24 h): 4.9
- Crystalline form change ([1]; H2O, 1 h): Yes^a
- S: solubility ([1]; H2O, 1 h): 4 µg/mL
- pH of filtrate ([1]; H2O, 1 h): 2.1
- Crystalline form change ([1]; H2O, 4 h): Yes^a
- S: solubility ([1]; H2O, 4 h): 3 µg/mL
- pH of filtrate ([1]; H2O, 4 h): 2.1
- Crystalline form change ([1]; H2O, 24 h): Yes^a
- S: solubility ([1]; H2O, 24 h): 4 µg/mL
- pH of filtrate ([1]; H2O, 24 h): 2.1
- solubility at 24 h ([1]; SGF, 37 °C, pH 1.8, simulated gastric fluid, thermodynamic from solid, SGF, 24 h, read-out: S: solubility): 11 µg/mL
- Crystalline form change ([1]; SGF, 1 h): Yes^a
- S: solubility ([1]; SGF, 1 h): 14 µg/mL
- pH of filtrate ([1]; SGF, 1 h): 1.6
- Crystalline form change ([1]; SGF, 4 h): Yes^a
- S: solubility ([1]; SGF, 4 h): 11 µg/mL
- pH of filtrate ([1]; SGF, 4 h): 1.6
- Crystalline form change ([1]; SGF, 24 h): Yes^a
- pH of filtrate ([1]; SGF, 24 h): 1.6
- crystalline form after DVS test ([2]; 25° C.): remained unchanged
- vapor sorption [2]: about 0.49%
- hygroscopicity [2]: slight hygroscopicity
- HPLC Purity (area %) [3, 4]: 99.57 area %
- HPLC purity Relative to starting (%) [3, 4]: 99.98%
- HPLC Purity (area %) [3, 5]: 99.58 area %
- HPLC purity Relative to starting (%) [3, 5]: 99.99%
- change of HPLC purity after placement under the corresponding conditions [3]: no significant change
- HPLC Purity (area %) ([3]; 60° C./sealed, 1 day): 99.58 area %
- HPLC purity Relative to starting (%) ([3]; 60° C./sealed, 1 day): 99.99%
- HPLC Purity (area %) ([3]; Starting): 99.59 area %
Structure (SMILES): Cc1cnc(-c2cc(O[C@@H](C)[C@@H](C)O)cc(C(=O)N[C@H](C)c3cnc(C(F)(F)F)nc3)c2F)s1 [Crystalline form A of hydrochloride]

- Crystalline form change ([1]; FaSSIF, 1 h): Yes^a
- S: solubility ([1]; FaSSIF, 1 h): 6 µg/mL
- pH of filtrate ([1]; FaSSIF, 1 h): 4.9
- Crystalline form change ([1]; FaSSIF, 4 h): Yes^a
- S: solubility ([1]; FaSSIF, 4 h): 7 µg/mL
- pH of filtrate ([1]; FaSSIF, 4 h): 4.7
- Crystalline form change ([1]; FaSSIF, 24 h): Yes^a
- S: solubility ([1]; FaSSIF, 24 h): 7 µg/mL
- pH of filtrate ([1]; FaSSIF, 24 h): 4.5
- Crystalline form change ([1]; FeSSIF, 1 h): Yes^a
- S: solubility ([1]; FeSSIF, 1 h): 20 µg/mL
- pH of filtrate ([1]; FeSSIF, 1 h): 4.9
- Crystalline form change ([1]; FeSSIF, 4 h): Yes^a
- S: solubility ([1]; FeSSIF, 4 h): 20 µg/mL
- pH of filtrate ([1]; FeSSIF, 4 h): 4.9
- Crystalline form change ([1]; FeSSIF, 24 h): Yes^a
- S: solubility ([1]; FeSSIF, 24 h): 21 µg/mL
- pH of filtrate ([1]; FeSSIF, 24 h): 4.9
- solubility in H2O compared with the other forms ([1]; H2O): highest solubility in H2O
- Crystalline form change ([1]; H2O, 1 h): Yes^a
- S: solubility ([1]; H2O, 1 h): 7 µg/mL
- pH of filtrate ([1]; H2O, 1 h): 2.3
- Crystalline form change ([1]; H2O, 4 h): Yes^a
- S: solubility ([1]; H2O, 4 h): 7 µg/mL
- pH of filtrate ([1]; H2O, 4 h): 2.3
- Crystalline form change ([1]; H2O, 24 h): Yes^a
- S: solubility ([1]; H2O, 24 h): 8 µg/mL
- pH of filtrate ([1]; H2O, 24 h): 2.2
- Crystalline form change ([1]; SGF, 1 h): Yes^a
- S: solubility ([1]; SGF, 1 h): 10 µg/mL
- pH of filtrate ([1]; SGF, 1 h): 1.7
- Crystalline form change ([1]; SGF, 4 h): Yes^a
- S: solubility ([1]; SGF, 4 h): 10 µg/mL
- pH of filtrate ([1]; SGF, 4 h): 1.7
- Crystalline form change ([1]; SGF, 24 h): Yes^a
- S: solubility ([1]; SGF, 24 h): 9 µg/mL
- pH of filtrate ([1]; SGF, 24 h): 1.7
- crystalline form after DVS test ([2]; 25° C.): remained unchanged
- vapor sorption when the humidity was more than 80% RH ([2]; 25° C., more than 80% RH): rapid vapor sorption
- vapor sorption [2]: about 0.41%
- hygroscopicity [2]: slight hygroscopicity
- HPLC Purity (area %) [3, 4]: 99.71 area %
- HPLC purity Relative to starting (%) [3, 4]: 100.00%
- HPLC Purity (area %) [3, 5]: 99.65 area %
- HPLC purity Relative to starting (%) [3, 5]: 99.94%
- change of HPLC purity after placement under the corresponding conditions [3]: no significant change
- HPLC Purity (area %) ([3]; 60° C./sealed, 1 day): 99.60 area %
- HPLC purity Relative to starting (%) ([3]; 60° C./sealed, 1 day): 99.89%
- HPLC Purity (area %) ([3]; Starting): 99.71 area %
Structure (SMILES): Cc1cnc(-c2cc(O[C@@H](C)[C@@H](C)O)cc(C(=O)N[C@H](C)c3cnc(C(F)(F)F)nc3)c2F)s1 [Crystalline form A of maleate]

- S: solubility ([1]; FaSSIF, 1 h): 28 µg/mL
- pH of filtrate ([1]; FaSSIF, 1 h): 2.6
- Crystalline form change ([1]; FaSSIF, 4 h): Yes^a′
- S: solubility ([1]; FaSSIF, 4 h): 13 µg/mL
- pH of filtrate ([1]; FaSSIF, 4 h): 2.6
- Crystalline form change ([1]; FaSSIF, 24 h): Yes^a′
- S: solubility ([1]; FaSSIF, 24 h): 6 µg/mL
- pH of filtrate ([1]; FaSSIF, 24 h): 2.6
- S: solubility ([1]; FeSSIF, 1 h): 95 µg/mL
- pH of filtrate ([1]; FeSSIF, 1 h): 4.8
- S: solubility ([1]; FeSSIF, 4 h): 81 µg/mL
- pH of filtrate ([1]; FeSSIF, 4 h): 4.8
- Crystalline form change ([1]; FeSSIF, 24 h): Yes^a′
- S: solubility ([1]; FeSSIF, 24 h): 28 µg/mL
- pH of filtrate ([1]; FeSSIF, 24 h): 4.8
- Crystalline form change ([1]; H2O, 1 h): Yes^a
- S: solubility ([1]; H2O, 1 h): 6 µg/mL
- pH of filtrate ([1]; H2O, 1 h): 1.8
- Crystalline form change ([1]; H2O, 4 h): Yes^a
- S: solubility ([1]; H2O, 4 h): 5 µg/mL
- pH of filtrate ([1]; H2O, 4 h): 1.8
- Crystalline form change ([1]; H2O, 24 h): Yes^a
- S: solubility ([1]; H2O, 24 h): 5 µg/mL
- pH of filtrate ([1]; H2O, 24 h): 1.8
- S: solubility ([1]; SGF, 1 h): 37 µg/mL
- pH of filtrate ([1]; SGF, 1 h): 1.5
- Crystalline form change ([1]; SGF, 4 h): Yes^a+b′
- S: solubility ([1]; SGF, 4 h): 33 µg/mL
- pH of filtrate ([1]; SGF, 4 h): 1.5
- Crystalline form change ([1]; SGF, 24 h): Yes^a′
- S: solubility ([1]; SGF, 24 h): 12 µg/mL
- pH of filtrate ([1]; SGF, 24 h): 1.5
- 1-hour solubility in the three biological vehicles other than H2O compared with the other forms ([1]; SGF, FaSSIF, FeSSIF, 1 h): highest 1-hour solubility
- crystalline form after DVS test ([2]; 25° C.): remained unchanged
- vapor sorption [2]: about 0.12%
- hygroscopicity [2]: almost no hygroscopicity
- HPLC Purity (area %) [3, 6]: 99.92 area %
- HPLC purity Relative to starting (%) [3, 6]: 100.00%
- HPLC Purity (area %) [3, 4]: 99.92 area %
- HPLC purity Relative to starting (%) [3, 4]: 100.00%
- HPLC Purity (area %) [3, 7]: 99.92 area %
- HPLC purity Relative to starting (%) [3, 7]: 100.00%
- HPLC Purity (area %) [3, 5]: 99.92 area %
- HPLC purity Relative to starting (%) [3, 5]: 100.00%
- change of HPLC purity after placement under the corresponding conditions [3]: no significant change
- HPLC Purity (area %) ([3]; 60° C./sealed, 1 day): 99.92 area %
- HPLC purity Relative to starting (%) ([3]; 60° C./sealed, 1 day): 100.00%
- HPLC Purity (area %) ([3]; Starting): 99.92 area %
Structure (SMILES): Cc1cnc(-c2cc(O[C@@H](C)[C@@H](C)O)cc(C(=O)N[C@H](C)c3cnc(C(F)(F)F)nc3)c2F)s1 [Crystalline form A of p-toluenesulfonate]
- Crystalline form change ([1]; FaSSIF, 1 h): Yes^b′ (transformed to free base crystalline form B + additional diffraction peaks)
- Crystalline form change ([1]; FeSSIF, 1 h): Yes^b′ (transformed to free base crystalline form B + additional diffraction peaks)
- Crystalline form change ([1]; FeSSIF, 4 h): Yes^b (transformed to free base crystalline form B)
- Crystalline form change ([1]; SGF, 1 h): Yes^b′ (transformed to free base crystalline form B + additional diffraction peaks)
